# What was measured:
# α7 nACh receptor Q114C = assay type: binding, chick
# Description: (§1) Mutagenesis was performed using the QuikChange method (Agilent Technologies Inc., CA, USA) to substitute amino acids throughout each of the binding loops A – F (Fig. 1). The α7 nACh-5-HT3 subunit cDNA was as described by Bertrand ([Eiselé et al., 1993]) and was cloned into pcDNA3.1 for expression in HEK293 cells. Human 5-HT3A cDNA (accession number: P46098) and mouse 5-HT3A cDNA (Q6J1J7) were cloned into the same vector. Cells were transiently transfected with this cDNA using either polyethyleneimine (PEI: 25 kDa, linear, powder, Polysciences Inc., Eppelheim, Germany) or Lipofectamine 2000 (Life Technologies, CA, USA) according to the manufacturer's instructions. 30 μl of PEI (1 mg ml^−1), 5 μg cDNA and 1 ml DMEM/F12 were incubated for 10 min at room temperature, added drop wise to a 90 mm plate of 70–80% confluent HEK293 cells, and incubated for 2–3 days before use.
# (§2) Human embryonic kidney (HEK) 293 cells were grown on 90 mm round tissue culture plates as monolayers in DMEM/F12 (Life Technologies) supplemented with 10% fetal bovine serum (FBS; Sigma Aldrich) at 37 °C in a moist atmosphere containing 5% CO2.
# (§3) Transfected HEK 293 cells were scraped into 0.6 ml of ice-cold 10 mM HEPES buffer (pH 7.4) and stored frozen. After thawing, they were washed with HEPES buffer, homogenised by passage through a 21 G needle, and 50 μg of cell suspension incubated in 0.5 ml HEPES buffer containing [^3H]epibatidine (55.8 Ci/mmol, Waltham, MA). Non-specific binding was determined using 300 μM (−)-nicotine. Equilibrium reactions were incubated on ice for at least 1 h. Incubations were terminated by vacuum filtration onto Whatman GF/B filters wetted with 0.3% polyethyleneimine, followed by two rapid washes with 2.5 ml ice cold buffer. Radioactivity was determined by scintillation in Ultima Gold XR (Perkin Elmer) using a Tri-Carb 2100 TR (PerkinElmer) scintillation counter. Final counts were monitored to ensure that binding never exceeded 10% of the added concentrations of radioligands.
# (§4) All data were analysed using GraphPad Prism v5. Individual saturation binding experiments were fitted to Eq. (1):(1) […] where Bmax is maximum binding at equilibrium, Kd is the equilibrium dissociation constant and [L] is the free concentration of radioligand. Values from individual experiments were averaged to yield the mean ± sem. Affinities were compared using 1-way ANOVA and a Dunnett's Post-Test.
# human 5-HT3 receptors [1] = target: T1, human 5-HT3 receptors (Homo sapiens, UniProt P46098); experiment: biochemical; assay type: binding
# T1 construct: expressed in transfected cells; host or cells: HEK293
# T1 sequence (P46098 24-478): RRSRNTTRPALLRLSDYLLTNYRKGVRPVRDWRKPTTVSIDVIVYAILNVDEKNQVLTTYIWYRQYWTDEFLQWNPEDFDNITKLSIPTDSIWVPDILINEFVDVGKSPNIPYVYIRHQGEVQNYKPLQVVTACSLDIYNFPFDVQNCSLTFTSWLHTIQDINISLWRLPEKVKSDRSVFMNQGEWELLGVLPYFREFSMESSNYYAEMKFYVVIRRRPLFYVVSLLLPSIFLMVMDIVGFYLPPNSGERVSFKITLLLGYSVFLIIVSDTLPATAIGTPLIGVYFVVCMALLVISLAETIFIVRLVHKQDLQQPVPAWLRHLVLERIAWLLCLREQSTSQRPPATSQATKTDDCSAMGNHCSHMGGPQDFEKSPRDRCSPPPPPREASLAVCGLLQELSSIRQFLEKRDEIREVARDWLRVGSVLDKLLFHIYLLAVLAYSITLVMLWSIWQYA
# Description: as §1
# (§5) Transfected HEK 293 cells were scraped into 0.6 ml of ice-cold 10 mM HEPES buffer (pH 7.4) and stored frozen. […] Non-specific binding was determined using 300 μM (−)-nicotine. […] Radioactivity was determined by scintillation in Ultima Gold XR (Perkin Elmer) using a Tri-Carb 2100 TR (PerkinElmer) scintillation counter. Final counts were monitored to ensure that binding never exceeded 10% of the added concentrations of radioligands. […]
# mouse 5-HT3 receptors [2] = target: T2, mouse 5-HT3 receptors (Mus musculus, UniProt P23979); experiment: biochemical; assay type: binding
# T2 construct: expressed in transfected cells; host or cells: HEK293
# Description: as §1, §5
# T2 sequence (P23979 24-483 isoform P23979-2 limits assumed): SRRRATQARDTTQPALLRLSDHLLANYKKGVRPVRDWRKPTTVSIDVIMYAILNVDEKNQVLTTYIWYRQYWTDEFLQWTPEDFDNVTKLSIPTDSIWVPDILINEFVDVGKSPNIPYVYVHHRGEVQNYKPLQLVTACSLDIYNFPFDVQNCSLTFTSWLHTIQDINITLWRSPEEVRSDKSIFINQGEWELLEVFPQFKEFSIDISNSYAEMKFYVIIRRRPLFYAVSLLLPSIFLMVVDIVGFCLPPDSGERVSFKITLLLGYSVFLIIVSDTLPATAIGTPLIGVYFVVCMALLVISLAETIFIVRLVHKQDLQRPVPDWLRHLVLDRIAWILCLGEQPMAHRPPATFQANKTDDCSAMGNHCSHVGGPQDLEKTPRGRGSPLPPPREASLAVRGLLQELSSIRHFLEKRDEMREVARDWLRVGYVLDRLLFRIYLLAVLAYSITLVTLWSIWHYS
# α7 nACh receptors W145F = test system: α7 nACh receptors W145F; set-up: method as in Li et al., 2011; conditions: W145F ref Li et al., 2011; cited from earlier work
# α7 nACh receptors Y184F = test system: α7 nACh receptors Y184F; set-up: method as in Li et al., 2011; conditions: Y184F ref Li et al., 2011; cited from earlier work
# α7 nACh receptors W53F = test system: α7 nACh receptors W53F; set-up: method as in Li et al., 2011; Van Arnam et al., 2013; conditions: W53F ref Li et al., 2011; Van Arnam et al., 2013; cited from earlier work
# α7 nACh receptors = target: α7 nACh receptors; set-up: method as in Li et al., 2011; Van Arnam et al., 2013; conditions: before W53 substitution ref Li et al., 2011; Van Arnam et al., 2013; cited from earlier work
# α7 nACh receptors W53A = target: α7 nACh receptors W53A; set-up: method as in Li et al., 2011; Van Arnam et al., 2013; conditions: W53 substituted by Ala ref Li et al., 2011; Van Arnam et al., 2013; cited from earlier work
# α7 nACh receptors L116A = test system: α7 nACh receptors L116A; set-up: method as in Blum et al., 2013; Van Arnam et al., 2013; conditions: L116 Ala mutation ref Blum et al., 2013, Van Arnam et al.; cited from earlier work
# α7 nACh receptor N104C = target: α7 nACh receptor N104C; set-up: species or system chick; conditions: no saturable binding
# Description: as §1, §2, §3, §4
# α7 nACh receptor W145C = target: α7 nACh receptor W145C; set-up: species or system chick; conditions: no saturable binding
# Description: as §1, §2, §3, §4
# α7 nACh receptor W53C = target: α7 nACh receptor W53C; set-up: species or system chick; conditions: no saturable binding
# Description: as §1, §2, §3, §4
# α7 nACh receptor Y184C = target: α7 nACh receptor Y184C; set-up: species or system chick; conditions: no saturable binding
# Description: as §1, §2, §3, §4
# α7 nACh receptor Y191C = target: α7 nACh receptor Y191C; set-up: species or system chick; conditions: no saturable binding
# Description: as §1, §2, §3, §4
# α7 nACh receptor Y91C = target: α7 nACh receptor Y91C; set-up: species or system chick; conditions: no saturable binding
# Description: as §1, §2, §3, §4
# [3] = target: T3, wild type α7 nACh receptors (UniProt P22770+P23979); assay type: binding, chick
# T3 construct: directed against the 5-HT3 region of the chimaeric receptor; expressed in transfected cells; host or cells: HEK293
# T3 sequence (P22770+P23979 fused P22770:T225I/P22770:M226I): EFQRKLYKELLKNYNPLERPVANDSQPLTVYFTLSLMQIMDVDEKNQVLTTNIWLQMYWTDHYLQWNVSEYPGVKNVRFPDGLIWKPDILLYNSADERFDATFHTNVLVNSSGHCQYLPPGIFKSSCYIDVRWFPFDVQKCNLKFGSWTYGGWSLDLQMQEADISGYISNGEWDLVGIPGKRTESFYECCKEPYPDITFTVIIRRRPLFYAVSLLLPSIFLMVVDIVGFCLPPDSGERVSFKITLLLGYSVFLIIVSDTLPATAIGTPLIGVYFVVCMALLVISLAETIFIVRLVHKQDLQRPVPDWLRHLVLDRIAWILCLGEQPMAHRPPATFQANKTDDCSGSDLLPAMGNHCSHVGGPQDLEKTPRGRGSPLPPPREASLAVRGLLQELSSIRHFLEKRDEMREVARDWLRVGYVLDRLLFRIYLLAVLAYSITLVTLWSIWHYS
# Description: as §1, §2, §3, §4
# [4] = target: T4, wild type α7 nACh receptors (UniProt P22770+P23979, M226I/T225I); assay type: binding, chick; conditions: α7 nACh-5-HT3 chimaera in HEK 293 cells
# T4 construct: directed against the 5-HT3 region of the chimaeric receptor; expressed in transfected cells; host or cells: HEK293
# T4 sequence (P22770+P23979 fused P22770:T225I/P22770:M226I): as above
# Description: as §1, §2, §3, §4
# α7 nACh receptor C186A = assay type: binding, chick
# Description: as §1, §2, §3, §4
# α7 nACh receptor C187A = assay type: binding, chick
# Description: as §1, §2, §3, §4
# α7 nACh receptor D160C = assay type: binding, chick
# Description: as §1, §2, §3, §4
# α7 nACh receptor L106C = assay type: binding, chick
# Description: as §1, §2, §3, §4
# α7 nACh receptor L116C = assay type: binding, chick
# Description: as §1, §2, §3, §4
# α7 nACh receptor Q55C = assay type: binding, chick
# Description: as §1, §2, §3, §4
# α7 nACh receptor S144C = assay type: binding, chick
# Description: as §1, §2, §3, §4
# α7 nACh receptor S162C = assay type: binding, chick
# Description: as §1, §2, §3, §4
# α7 nACh receptor T146C = assay type: binding, chick
# Description: as §1, §2, §3, §4
# human 5-HT3 receptors [5] = target: T1, human 5-HT3 receptors; assay type: binding; conditions: concentration of up to 25 nM
# Description: as §1, §5
# mouse 5-HT3 receptors [6] = target: mouse 5-HT3 receptors (Mus musculus, UniProt P23979); assay type: binding; conditions: concentration of up to 25 nM
# Description: as §1, §5
# Target sequence in this assay (P23979 24-246 limits assumed): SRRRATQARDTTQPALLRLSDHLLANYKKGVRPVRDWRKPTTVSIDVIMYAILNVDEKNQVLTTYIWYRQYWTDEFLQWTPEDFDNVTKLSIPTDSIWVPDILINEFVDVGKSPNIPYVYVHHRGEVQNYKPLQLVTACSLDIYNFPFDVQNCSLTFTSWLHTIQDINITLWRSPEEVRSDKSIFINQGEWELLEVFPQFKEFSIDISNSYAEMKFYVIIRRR
smiles,measurement,setting,value
Clc1ccc(C2CC3CCC2N3)cn1 (stereo not drawn) [epibatidine],increase in affinity relative to wild type,α7 nACh receptor Q114C,5 fold
same,Ki,human 5-HT3 receptors [1],2510 nM
same,Ki,mouse 5-HT3 receptors [2],12300 nM
same,reduction of affinity by mutation,α7 nACh receptors W145F,> 2200 fold
same,change of affinity by mutation,α7 nACh receptors Y184F,> 250 fold
same,affinity change by mutation,α7 nACh receptors W53F,4 fold
same,EC50,α7 nACh receptors,340 nM
same,EC50,α7 nACh receptors W53A,5800 nM
same,change in the EC50 by mutation,α7 nACh receptors L116A,9 fold
Clc1ccc(C2CC3CCC2N3)cn1 (stereo not drawn) [[^3H]epibatidine],Kd,α7 nACh receptor N104C,> 20 nM
same,Kd,α7 nACh receptor W145C,> 20 nM
same,Kd,α7 nACh receptor W53C,> 20 nM
same,Kd,α7 nACh receptor Y184C,> 20 nM
same,Kd,α7 nACh receptor Y191C,> 20 nM
same,Kd,α7 nACh receptor Y91C,> 20 nM
same,Kd,[3],8 nM
same,pKd Mean ± SEM,[4],8.09 ± 0.06
same,Kd,α7 nACh receptor C186A,33 nM
same,pKd Mean ± SEM,"α7 nACh receptor C186A; loop C, HEK 293 cells",7.48 ± 0.10
same,Kd,α7 nACh receptor C187A,60 nM
same,pKd Mean ± SEM,"α7 nACh receptor C187A; loop C, HEK 293 cells",7.22 ± 0.07
same,Kd,α7 nACh receptor D160C,8.7 nM
same,pKd Mean ± SEM,"α7 nACh receptor D160C; loop F, HEK 293 cells",8.06 ± 0.10
same,Kd,α7 nACh receptor L106C,8.3 nM
same,pKd Mean ± SEM,"α7 nACh receptor L106C; loop E, HEK 293 cells",8.08 ± 0.12
same,Kd,α7 nACh receptor L116C,5.1 nM
same,pKd Mean ± SEM,"α7 nACh receptor L116C; loop E, HEK 293 cells",8.29 ± 0.05
same,Kd,α7 nACh receptor Q114C,1.5 nM
same,pKd Mean ± SEM,"α7 nACh receptor Q114C; loop E, HEK 293 cells",8.82 ± 0.09
same,Kd,α7 nACh receptor Q55C,6.9 nM
same,pKd Mean ± SEM,"α7 nACh receptor Q55C; loop D, HEK 293 cells",8.16 ± 0.09
same,Kd,α7 nACh receptor S144C,2.3 nM
same,pKd Mean ± SEM,"α7 nACh receptor S144C; loop B, HEK 293 cells",8.64 ± 0.12
same,Kd,α7 nACh receptor S162C,7.2 nM
same,pKd Mean ± SEM,"α7 nACh receptor S162C; loop F, HEK 293 cells",8.14 ± 0.09
same,Kd,α7 nACh receptor T146C,9.8 nM
same,pKd Mean ± SEM,"α7 nACh receptor T146C; loop B, HEK 293 cells",8.01 ± 0.07
same,saturable binding,human 5-HT3 receptors [5],not detected
same,saturable binding,mouse 5-HT3 receptors [6],not detected
